Results taken from PubChem BioAssay AID330 (DTP/NCI, 2004).
Several values for one entry are separate records, joined by “and”; a condition that tells them apart may be missing. Identical values can stand only once. Inconclusive results and toxic doses are left out. The calls were made as follows: active = survival T/C of 150% or more; inactive = T/C below 125% in these data. Square brackets hold non-standard residues; d marks the D form. Peptide text beside a SMILES is read from it. * marks the point of attachment. ξ: configuration not given here. Boc = CC(C)(C)OC(=O)*; ξNva = CCCC(N)C(=O)O; NHNH2 = NN*

System: P388 leukemia ip, CD2F1 mice, survival T/C
Assay: NCI In Vivo Anticancer Drug Screen. Data for tumor model P388 Leukemia (intraperitoneal) in CD2F1 (CDF1) mice
Settings: endpoint: median survival time, higher = longer survival
In short: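 Mice carrying the transplanted tumor received test compound or vehicle. Survival was recorded in each group, and the value is the treated-group measurement divided by that of the vehicle-treated control group.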

[1] = dose: 100.0 mg/kg/injection, schedule: Q01DX009 (ip), vehicle: saline with Tween-80
[2] = dose: 100.0 mg/kg/injection, schedule: Q04DX003 (ip), vehicle: saline with Tween-80
[3] = dose: 200.0 mg/kg/injection, schedule: Q01DX009 (ip), vehicle: saline with Tween-80
[4] = dose: 200.0 mg/kg/injection, schedule: Q04DX003 (ip), vehicle: saline with Tween-80
[5] = dose: 400.0 mg/kg/injection, schedule: Q04DX003 (ip), vehicle: saline with Tween-80
[6] = dose: 12.5 mg/kg/injection, schedule: Q01DX009 (ip), vehicle: saline with Tween-80
[7] = dose: 25.0 mg/kg/injection, schedule: Q01DX009 (ip), vehicle: saline with Tween-80
[8] = dose: 50.0 mg/kg/injection, schedule: Q01DX009 (ip), vehicle: saline with Tween-80
[9] = dose: 60.0 mg/kg/injection, schedule: Q01DX005 (ip), vehicle: Klucel (hydroxypropylcellulose) (HPC)
[10] = dose: 50.0 mg/kg/injection, schedule: Q01DX005 (ip), vehicle: saline with Tween-80
[11] = dose: 100.0 mg/kg/injection, schedule: Q01DX005 (ip), vehicle: saline with Tween-80
[12] = dose: 200.0 mg/kg/injection, schedule: Q01DX005 (ip), vehicle: saline with Tween-80
[13] = dose: 60.0 mg/kg/injection, schedule: Q01DX005 (ip), vehicle: saline
[14] = dose: 120.0 mg/kg/injection, schedule: Q01DX005 (ip), vehicle: saline
[15] = dose: 240.0 mg/kg/injection, schedule: Q01DX005 (ip), vehicle: saline
[16] = dose: 50.0 mg/kg/injection, schedule: Q01DX009 (ip), vehicle: Klucel (hydroxypropylcellulose) (HPC)
[17] = dose: 100.0 mg/kg/injection, schedule: Q01DX009 (ip), vehicle: Klucel (hydroxypropylcellulose) (HPC)
[18] = dose: 200.0 mg/kg/injection, schedule: Q01DX009 (ip), vehicle: Klucel (hydroxypropylcellulose) (HPC)
[19] = dose: 7.5 mg/kg/injection, schedule: Q01DX005 (ip), vehicle: saline with Tween-80
[20] = dose: 15.0 mg/kg/injection, schedule: Q01DX005 (ip), vehicle: saline with Tween-80

Measured: T/C

CCOC(=O)C(=Cc1c[nH]c2ccc(Br)cc12)C(=O)OCC
inactive: [1] 104 % of control | [2] 109 % of control | [3] 87 % of control | [4] 109 % of control | dose: 400.0 mg/kg/injection, schedule: Q01DX009 (ip), vehicle: saline with Tween-80 100 % of control | [5] 100 % of control

CC(C)(C)c1ccc(SS(=O)(=O)c2ccc(C(C)(C)C)cc2)cc1
inactive: dose: 100.0 mg/kg/injection, schedule: Q01DX001 (ip), vehicle: saline with Tween-80 98 % of control | dose: 100.0 mg/kg/injection, schedule: Q04DX003 (ip), vehicle: Klucel (hydroxypropylcellulose) (HPC) 97 % of control | dose: 200.0 mg/kg/injection, schedule: Q01DX001 (ip), vehicle: saline with Tween-80 100 % of control | dose: 200.0 mg/kg/injection, schedule: Q04DX003 (ip), vehicle: Klucel (hydroxypropylcellulose) (HPC) 104 % of control | dose: 400.0 mg/kg/injection, schedule: Q01DX001 (ip), vehicle: saline with Tween-80 97 % of control | dose: 400.0 mg/kg/injection, schedule: Q04DX003 (ip), vehicle: Klucel (hydroxypropylcellulose) (HPC) 105 % of control

BrC1C2CCC3OC3CCC12 (centres undefined)
inactive: [2] 101 % of control | [4] 92 % of control | [5] 97 % of control

NC(CCC(=O)OCc1ccccc1)C(=O)OCc1ccccc1 (centres undefined)
inactive: dose: 50.0 mg/kg/injection, schedule: Q04DX003 (ip), vehicle: saline 100 % of control | dose: 100.0 mg/kg/injection, schedule: Q04DX003 (ip), vehicle: saline 104 % of control | dose: 200.0 mg/kg/injection, schedule: Q04DX003 (ip), vehicle: saline 100 % of control

COc1cccc2c1C(=O)c1c(O)c3c(c(O)c1C2=O)C[C@@](O)(C(C)=O)CC3OC1CC(NC2CC(=O)N(c3ccccc3)C2=O)C(O)C(C)O1 (some centres undefined)
inactive: dose: 6.25 mg/kg/injection, schedule: Q04DX003 (ip), vehicle: water 108 % of control | dose: 12.5 mg/kg/injection, schedule: Q04DX003 (ip), vehicle: water 103 % of control | dose: 25.0 mg/kg/injection, schedule: Q04DX003 (ip), vehicle: water 103 % of control | dose: 50.0 mg/kg/injection, schedule: Q04DX003 (ip), vehicle: water 108 % of control

CC1(C)CC(N)=CC(=S)N1
inactive: [6] 92 % of control | [7] 97 % of control | [8] 101 % of control

COc1cc2ccc1-c1cc(ccc1O)CC1c3cc4c(cc3CCN1C)Oc1c(OC)cc3c(c1O4)C(C2)N(C)CC3 (centres undefined)
inactive: dose: 7.5 mg/kg/injection, schedule: Q01DX005 (ip), vehicle: Klucel (hydroxypropylcellulose) (HPC) 99 % of control | dose: 15.0 mg/kg/injection, schedule: Q01DX005 (ip), vehicle: Klucel (hydroxypropylcellulose) (HPC) 99 % of control | dose: 30.0 mg/kg/injection, schedule: Q01DX005 (ip), vehicle: Klucel (hydroxypropylcellulose) (HPC) 92 % of control | [9] 104 % of control

CC1(C)SC2C(NC(=O)C(N)c3ccccc3)C(=O)N2C1C(=O)O (centres undefined)
inactive: [2] 95 % of control | dose: 150.0 mg/kg/injection, schedule: Q01DX009 (ip), vehicle: saline with Tween-80 100 % of control | [4] 100 % of control | dose: 300.0 mg/kg/injection, schedule: Q01DX009 (ip), vehicle: saline with Tween-80 109 % of control | [5] 100 % of control | dose: 600.0 mg/kg/injection, schedule: Q01DX009 (ip), vehicle: saline with Tween-80 109 % of control

CC(=O)CCC1=C(O)C(C)=C(C)C(=O)C1=O
inactive: [9] 103 % of control | dose: 120.0 mg/kg/injection, schedule: Q01DX005 (ip), vehicle: Klucel (hydroxypropylcellulose) (HPC) 115 % of control | dose: 240.0 mg/kg/injection, schedule: Q01DX005 (ip), vehicle: Klucel (hydroxypropylcellulose) (HPC) 109 % of control

Cc1cc2c(cc1N)C(C)C1(CCC(=O)N2Cc2ccccc2)OCCO1 (centres undefined)
inactive: [10] 96 % of control | [11] 99 % of control | [12] 93 % of control

C[N+]12CCO[B-]1(c1ccccc1)OCC2 (centres undefined)
inactive: [13] 108 % of control | [14] 100 % of control | [15] 100 % of control

Cc1ccc(C)c(NC(=O)Nc2ccc(C(=O)O)c(O)c2)c1
inactive: [16] 101 % of control | [17] 101 % of control | [18] 114 % of control

CCCC(NC(=O)CNC(=O)CN)C(=O)O (stereo not drawn) (H-Gly-Gly-[ξNva]-OH)
inactive: [13] 98 % of control | [14] 106 % of control | [15] 106 % of control

CC(C)C(NC(=O)C(Cc1c[nH]c2ccccc12)NC(=O)OC(C)(C)C)C(=O)NN (stereo not drawn) (Boc-Trp-Val-NHNH2; configuration not given here)
inactive: dose: 12.5 mg/kg/injection, schedule: Q01DX009 (ip), vehicle: other 98 % of control | dose: 25.0 mg/kg/injection, schedule: Q01DX009 (ip), vehicle: other 98 % of control | dose: 50.0 mg/kg/injection, schedule: Q01DX009 (ip), vehicle: other 91 % of control | dose: 100.0 mg/kg/injection, schedule: Q01DX009 (ip), vehicle: other 89 % of control | dose: 200.0 mg/kg/injection, schedule: Q01DX009 (ip), vehicle: other 94 % of control

Cc1cc2nc(CC(=O)c3ccccc3)c(CC(=O)c3ccccc3)nc2cc1C
inactive: [19] 98 % of control | [20] 95 % of control

O=[N+]([O-])c1ccc2c(c1)SC1=NN3C(O)COC(OCc4ccccc4)C3N12 (centres undefined)
inactive: dose: 100.0 mg/kg/injection, schedule: Q04DX002 (ip), vehicle: saline 97 % of control | dose: 200.0 mg/kg/injection, schedule: Q04DX002 (ip), vehicle: saline 100 % of control | dose: 400.0 mg/kg/injection, schedule: Q04DX002 (ip), vehicle: saline 93 % of control

CCOC(=O)C(C(=O)c1ccccc1)c1cc(NS(=O)(=O)c2ccccc2)ccc1O (centres undefined)
inactive: [6] 90 % of control | [7] 100 % of control | [8] 105 % of control | dose: 75.0 mg/kg/injection, schedule: Q04DX003 (ip), vehicle: saline with Tween-80 100 % of control | dose: 150.0 mg/kg/injection, schedule: Q04DX003 (ip), vehicle: saline with Tween-80 100 % of control | dose: 300.0 mg/kg/injection, schedule: Q04DX003 (ip), vehicle: saline with Tween-80 100 % of control

Cc1cc[n+](C2=C(Nc3cccc(C(F)(F)F)c3)C(=O)c3ccccc3C2=O)cc1
inactive: dose: 3.75 mg/kg/injection, schedule: Q01DX005 (ip), vehicle: saline with Tween-80 105 % of control | [19] 119 % of control | [20] 105 % of control

CC1(C)C=Cc2cc(O)ccc2O1
inactive: [7] 99 % of control | [8] 90 % of control | [1] 88 % of control | [3] 86 % of control

ClC1=C(Cl)C2(Cl)C=CC1(Cl)C2
inactive: [10] 106 % of control | [11] 106 % of control | [12] 108 % of control

CCOC(=O)/C=C(\C)NCCSSCCN/C(C)=C/C(=O)OCC
inactive: [16] 100 % of control | [17] 97 % of control | [18] 90 % of control

COc1ccc(CC2c3cc(OC)c(OC)cc3CCN2C)cc1OC (centres undefined)
inactive: dose: 1.5 mg/kg/injection, schedule: Q01DX005 (ip), vehicle: saline with Tween-80 97 % of control | dose: 3.0 mg/kg/injection, schedule: Q01DX005 (ip), vehicle: saline with Tween-80 98 % of control | dose: 6.0 mg/kg/injection, schedule: Q01DX005 (ip), vehicle: saline with Tween-80 99 % of control | [8] 91 % of control

NC(CCCNc1ccc(O)cc1)C(=O)O (centres undefined)
inactive: dose: 50.0 mg/kg/injection, schedule: Q01DX005 (ip), vehicle: saline 100 % of control | dose: 100.0 mg/kg/injection, schedule: Q01DX005 (ip), vehicle: saline 99 % of control and 104 % of control | dose: 200.0 mg/kg/injection, schedule: Q01DX005 (ip), vehicle: saline 98 % of control

COC(=O)C1CC2C(=O)N(C)C=CC12 (centres undefined)
inactive: dose: 100.0 mg/kg/injection, schedule: Q04DX002 (ip), vehicle: saline with Tween-80 104 % of control | dose: 200.0 mg/kg/injection, schedule: Q04DX002 (ip), vehicle: saline with Tween-80 98 % of control | dose: 400.0 mg/kg/injection, schedule: Q04DX002 (ip), vehicle: saline with Tween-80 102 % of control
